According to article PMC10712727, “Safety, Tolerability, and Pharmacokinetics of Senaparib, a Novel PARP1/2 Inhibitor, in Chinese Patients With Advanced Solid Tumors: A Phase I Trial” (The Oncologist, 2023):

Test system: patients with advanced solid tumors
Test: Safety: treatment-emergent and senaparib-related adverse events graded per NCI CTCAE v4.03
Format: in vivo
Experimental: This phase I, open-label, multicenter, dose-escalation, and dose-expansion study was conducted at three national clinical institutions in China. […] At baseline, all patients enrolled in the dose-escalation phase had to have at least one evaluable lesion, and those in the dose-expansion period had to have at least one measurable lesion, according to Response Evaluation Criteria in Solid Tumors version 1.1 (RECIST v1.1).[16] Entry to the dose-expansion cohort required the presence of a BRCA mutation, with the exception of patients with ovarian carcinoma, fallopian tube carcinoma, and primary peritoneal carcinoma. Full study eligibility criteria are provided in Supplementary Table S1.
Dose escalation was conducted using a modified Fibonacci 3 + 3 method (Supplementary Fig. S1).[17] Patients were administered oral senaparib from a planned starting dose of 2 mg once daily (QD), with preliminary dose escalation to 120 mg via nine dose groups, in order of their entry into the study. At a given dose level, each patient received a single dose of senaparib followed by a 7-day washout period. They then entered a continuous dosing period to confirm the safety and PK profile, in which they received senaparib QD from day 1 to day 21 of each 3-week cycle. Progression to the next higher dose required approval from the Data Safety Monitoring Committee (DSMC) upon review of the safety and PK data of the previous dose. A 50-mg twice-daily (BID) dosing group was added (planned enrollment, n = 6 patients) based on a DSMC review of the safety, PK, and efficacy analysis of the completed QD dose groups in the phase I clinical trial of senaparib dose escalation in Australia (NCT03507543), which commenced prior to the start of this trial.
The dose-expansion period included 3 populations: dose groups in which at least one patient achieved complete response (CR) or partial response (PR) per RECIST v1.1[16] and 1 dose group higher (evaluated for safety), as well as the dose group at the maximum tolerated dose (MTD)/recommended phase II dose (RP2D). Each of these groups included those patients in the respective dose-escalation group plus a planned additional 10 patients (approximately 20 patients in the MTD/RP2D group) with BRCA^mut+ solid tumors (ovarian, breast, or prostate cancer were preferred, and ovarian cancer could be BRCA wild type). Patients received senaparib monotherapy orally QD or BID (50-mg dose only) over each 3-week cycle until disease progression or unacceptable toxicity.
DLTs were predefined toxicities (Supplementary Table S2) recorded over the 7 days following the single-dose administration of senaparib and during the first treatment cycle (day 1-day 21) for each dose group in the dose-escalation period only. The MTD was defined as the maximum dose at which ≤1/6 patients experienced a DLT. Senaparib PK parameters were derived from blood samples collected from patients after the single administration, and at regular intervals during the first cycle of the dose-escalation and dose-expansion periods. Plasma concentrations of senaparib were determined using high-performance liquid chromatography-tandem mass spectrometry. Tumor response was assessed every 6 weeks per RECIST v1.1,[16] recording objective response rate (ORR), disease control rate (DCR), duration of response (DOR), and progression-free survival (PFS) by dose level for all patients and for those harboring BRCA^mut+ tumors.

O=C(c1cc(Cn2c(=O)[nH]c(=O)c3c(F)cccc32)ccc1F)N1CCN(c2ncccn2)CC1 [Senaparib]
TRAEs Grade ≥3, events (40 mg QD n = 3): 0 n ev | TRAEs Grade ≥3, patients (40 mg QD n = 3): 0 n (%) | TRAEs, events (40 mg QD n = 3): 6 n ev | TRAEs, patients (40 mg QD n = 3): 3 (100) n (%) | Vomiting TRAE, All (40 mg QD n = 3): 0 n (%) | Vomiting TRAE, Gr≥3 (40 mg QD n = 3): 0 n (%) | WBC decreased TRAE, All (40 mg QD n = 3): 0 n (%) | WBC decreased TRAE, Gr≥3 (40 mg QD n = 3): 0 n (%) | ALT increased TRAE, All (50 mg BID n = 4): 1 (25.0) n (%) | ALT increased TRAE, Gr≥3 (50 mg BID n = 4): 0 n (%) | AST increased TRAE, All (50 mg BID n = 4): 1 (25.0) n (%) | AST increased TRAE, Gr≥3 (50 mg BID n = 4): 0 n (%) | Anemia TRAE, All (50 mg BID n = 4): 3 (75.0) n (%) | Anemia TRAE, Gr≥3 (50 mg BID n = 4): 2 (50.0) n (%) | Any TEAE, All (50 mg BID n = 4): 4 (100) n (%) | Any TEAE, Gr≥3 (50 mg BID n = 4): 3 (75.0) n (%) | Any TEAE, events (50 mg BID n = 4): 32 n ev | Any TEAE, patients (50 mg BID n = 4): 4 (100) n (%) | Any TRAE, All (50 mg BID n = 4): 4 (100) n (%) | Any TRAE, Gr≥3 (50 mg BID n = 4): 2 (50.0) n (%) | Appetite decreased TRAE, All (50 mg BID n = 4): 0 n (%) | Appetite decreased TRAE, Gr≥3 (50 mg BID n = 4): 0 n (%) | Asthenia TRAE, All (50 mg BID n = 4): 1 (25.0) n (%) | Asthenia TRAE, Gr≥3 (50 mg BID n = 4): 0 n (%) | Blood bilirubin increased TRAE, All (50 mg BID n = 4): 0 n (%) | Blood bilirubin increased TRAE, Gr≥3 (50 mg BID n = 4): 0 n (%) | Blood creatinine increased TRAE, All (50 mg BID n = 4): 0 n (%) | Blood creatinine increased TRAE, Gr≥3 (50 mg BID n = 4): 0 n (%) | Hypokalemia TRAE, All (50 mg BID n = 4): 0 n (%) | Hypokalemia TRAE, Gr≥3 (50 mg BID n = 4): 0 n (%) | Nausea TRAE, All (50 mg BID n = 4): 2 (50.0) n (%) | Nausea TRAE, Gr≥3 (50 mg BID n = 4): 0 n (%) | Neutrophil count decreased TRAE, All (50 mg BID n = 4): 0 n (%) | Neutrophil count decreased TRAE, Gr≥3 (50 mg BID n = 4): 0 n (%) | Platelet count decreased TRAE, All (50 mg BID n = 4): 1 (25.0) n (%) | Platelet count decreased TRAE, Gr≥3 (50 mg BID n = 4): 0 n (%) | SAEs, events (50 mg BID n = 4): 1 n ev | SAEs, patients (50 mg BID n = 4): 1 (25.0) n (%) | TEAE Grade ≥3, events (50 mg BID n = 4): 3 n ev | TEAE Grade ≥3, patients (50 mg BID n = 4): 3 (75.0) n (%) | TEAEs leading to death, events (50 mg BID n = 4): 0 n ev | TEAEs leading to death, patients (50 mg BID n = 4): 0 n (%) | TEAEs leading to dose discontinuation, events (50 mg BID n = 4): 0 n ev | TEAEs leading to dose discontinuation, patients (50 mg BID n = 4): 0 n (%) | TEAEs leading to dose interruption, events (50 mg BID n = 4): 1 n ev | TEAEs leading to dose interruption, patients (50 mg BID n = 4): 1 (25.0) n (%) | TEAEs leading to dose reduction, events (50 mg BID n = 4): 1 n ev | TEAEs leading to dose reduction, patients (50 mg BID n = 4): 1 (25.0) n (%) | TRAEs Grade ≥3, events (50 mg BID n = 4): 2 n ev | TRAEs Grade ≥3, patients (50 mg BID n = 4): 2 (50.0) n (%) | TRAEs, events (50 mg BID n = 4): 26 n ev | TRAEs, patients (50 mg BID n = 4): 4 (100) n (%) | Vomiting TRAE, All (50 mg BID n = 4): 2 (50.0) n (%) | Vomiting TRAE, Gr≥3 (50 mg BID n = 4): 0 n (%) | WBC decreased TRAE, All (50 mg BID n = 4): 2 (50.0) n (%) | WBC decreased TRAE, Gr≥3 (50 mg BID n = 4): 0 n (%) | ALT increased TRAE, All (60 mg QD n = 5): 0 n (%) | ALT increased TRAE, Gr≥3 (60 mg QD n = 5): 0 n (%) | AST increased TRAE, All (60 mg QD n = 5): 0 n (%) | AST increased TRAE, Gr≥3 (60 mg QD n = 5): 0 n (%) | Anemia TRAE, All (60 mg QD n = 5): 0 n (%) | Anemia TRAE, Gr≥3 (60 mg QD n = 5): 0 n (%) | Any TEAE, All (60 mg QD n = 5): 5 (100) n (%) | Any TEAE, Gr≥3 (60 mg QD n = 5): 2 (40.0) n (%) | Any TEAE, events (60 mg QD n = 5): 33 n ev | Any TEAE, patients (60 mg QD n = 5): 5 (100) n (%) | Any TRAE, All (60 mg QD n = 5): 5 (100) n (%) | Any TRAE, Gr≥3 (60 mg QD n = 5): 0 n (%) | Appetite decreased TRAE, All (60 mg QD n = 5): 1 (20.0) n (%) | Appetite decreased TRAE, Gr≥3 (60 mg QD n = 5): 0 n (%) | Asthenia TRAE, All (60 mg QD n = 5): 1 (20.0) n (%) | Asthenia TRAE, Gr≥3 (60 mg QD n = 5): 0 n (%) | Blood bilirubin increased TRAE, All (60 mg QD n = 5): 0 n (%) | Blood bilirubin increased TRAE, Gr≥3 (60 mg QD n = 5): 0 n (%) | Blood creatinine increased TRAE, All (60 mg QD n = 5): 1 (20.0) n (%) | Blood creatinine increased TRAE, Gr≥3 (60 mg QD n = 5): 0 n (%) | Hypokalemia TRAE, All (60 mg QD n = 5): 1 (20.0) n (%) | Hypokalemia TRAE, Gr≥3 (60 mg QD n = 5): 0 n (%) | Nausea TRAE, All (60 mg QD n = 5): 1 (20.0) n (%) | Nausea TRAE, Gr≥3 (60 mg QD n = 5): 0 n (%) | Neutrophil count decreased TRAE, All (60 mg QD n = 5): 1 (20.0) n (%) | Neutrophil count decreased TRAE, Gr≥3 (60 mg QD n = 5): 0 n (%) | Platelet count decreased TRAE, All (60 mg QD n = 5): 2 (40.0) n (%) | Platelet count decreased TRAE, Gr≥3 (60 mg QD n = 5): 0 n (%) | SAEs, events (60 mg QD n = 5): 2 n ev | SAEs, patients (60 mg QD n = 5): 2 (40.0) n (%) | TEAE Grade ≥3, events (60 mg QD n = 5): 2 n ev | TEAE Grade ≥3, patients (60 mg QD n = 5): 2 (40.0) n (%) | TEAEs leading to death, events (60 mg QD n = 5): 0 n ev | TEAEs leading to death, patients (60 mg QD n = 5): 0 n (%) | TEAEs leading to dose discontinuation, events (60 mg QD n = 5): 1 n ev | TEAEs leading to dose discontinuation, patients (60 mg QD n = 5): 1 (20.0) n (%) | TEAEs leading to dose interruption, events (60 mg QD n = 5): 1 n ev | TEAEs leading to dose interruption, patients (60 mg QD n = 5): 1 (20.0) n (%) | TEAEs leading to dose reduction, events (60 mg QD n = 5): 0 n ev | TEAEs leading to dose reduction, patients (60 mg QD n = 5): 0 n (%) | TRAEs Grade ≥3, events (60 mg QD n = 5): 0 n ev | TRAEs Grade ≥3, patients (60 mg QD n = 5): 0 n (%) | TRAEs, events (60 mg QD n = 5): 27 n ev | TRAEs, patients (60 mg QD n = 5): 5 (100) n (%) | Vomiting TRAE, All (60 mg QD n = 5): 0 n (%) | Vomiting TRAE, Gr≥3 (60 mg QD n = 5): 0 n (%) | WBC decreased TRAE, All (60 mg QD n = 5): 2 (40.0) n (%) | WBC decreased TRAE, Gr≥3 (60 mg QD n = 5): 0 n (%) | ALT increased TRAE, All (80 mg QD n = 9): 1 (11.1) n (%) | ALT increased TRAE, Gr≥3 (80 mg QD n = 9): 0 n (%) | AST increased TRAE, All (80 mg QD n = 9): 2 (22.2) n (%) | AST increased TRAE, Gr≥3 (80 mg QD n = 9): 0 n (%) | Anemia TRAE, All (80 mg QD n = 9): 7 (77.8) n (%) | Anemia TRAE, Gr≥3 (80 mg QD n = 9): 3 (33.3) n (%) | Any TEAE, All (80 mg QD n = 9): 9 (100) n (%) | Any TEAE, Gr≥3 (80 mg QD n = 9): 6 (66.7) n (%) | Any TEAE, events (80 mg QD n = 9): 132 n ev | Any TEAE, patients (80 mg QD n = 9): 9 (100) n (%) | Any TRAE, All (80 mg QD n = 9): 9 (100) n (%) | Any TRAE, Gr≥3 (80 mg QD n = 9): 5 (55.6) n (%)
